The source of these data is US8883782B2, “Spiro-tetracyclic ring compounds as beta-secretase modulators and methods of use” (Amgen Inc., priority 2010, dated 2014).

Each structure is given as a SMILES string. Like-named read-outs stand apart in the source and are kept apart here.

The target in experiment [1] is Beta Secretase enzyme (BACE) (Homo sapiens, UniProt P56817). The experiment can be described thus: In vitro enzymatic BACE FRET (fluorescence resonance energy transfer) assay. In kind it is biochemical. The conditions noted are these: average IC50, enzyme assay; read-out: BACE 1 FRET assay. A digest of the protocol: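 Cleavage of a 50 nM fluorophore/quencher peptide FRET substrate by BACE for 1 h in 0.05 M acetate pH 4.2, 10% DMSO, 100 uM genapol. Reaction stopped with Tris to neutral pH before fluorescence reading.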
Chain of Beta Secretase enzyme (BACE) (P56817 46-501, species assumed): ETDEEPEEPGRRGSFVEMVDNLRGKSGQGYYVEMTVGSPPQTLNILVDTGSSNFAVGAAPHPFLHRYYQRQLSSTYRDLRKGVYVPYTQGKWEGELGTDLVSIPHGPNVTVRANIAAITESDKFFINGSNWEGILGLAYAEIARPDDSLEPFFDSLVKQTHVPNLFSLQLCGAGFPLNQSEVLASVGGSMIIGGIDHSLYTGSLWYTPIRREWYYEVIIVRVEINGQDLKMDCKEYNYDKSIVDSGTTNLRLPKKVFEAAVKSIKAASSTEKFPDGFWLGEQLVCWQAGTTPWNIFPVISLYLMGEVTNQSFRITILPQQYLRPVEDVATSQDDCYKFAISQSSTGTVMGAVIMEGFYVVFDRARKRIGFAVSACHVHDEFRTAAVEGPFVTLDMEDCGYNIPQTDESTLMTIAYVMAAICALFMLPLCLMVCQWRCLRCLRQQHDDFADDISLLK

Experiment [2] concerns Aβ40 in conditioned medium of cells stably expressing Amyloid Precursor Protein (APP). Description: In vitro BACE cell-based assay (Aβ40 in conditioned medium, sandwich ELISA). The conditions noted are these: read-out: HEK cell assay. In short, it runs like this:
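Step two: 10-point compound titration added, starting 100 μM or 10 μM, 0.1% DMSO. Step three: medium Aβ40 measured by ELISA, capture 3 h and detection 2 h at 4° C, TRF read.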
For orientation: ELISA stands for enzyme-linked immunosorbent assay.

Setting [3] is: Homo sapiens, HEK293, average IC50.
Where [4] appears, read: Homo sapiens, HEK293, average IC50, HEK cells.

With `CC(C)(C)/C=C/c1cc2c(cn1)Oc1cc(F)c(-c3cncnc3)cc1[C@@]21COC(N)=N1` [Example 304, (5S)-3-((1E)-3,3-dimethyl-1-buten-1-yl)-8-fluoro-7-(5-pyrimidinyl)spiro[chromeno[2,3-c]pyridine-5,4′-[1,3]oxazol]-2′-amine], the IC50 turned out to be 2.1 nM in experiment [1] and 23.9 nM in experiment [2] (setting [3]).

For `CC#Cc1cncc(-c2ccc3c(c2)[C@@]2(COC(N)=N2)c2cc(C4=CCCOC4)cnc2O3)c1` [Example 950, (5S)-3-(5,6-dihydro-2H-pyran-3-yl)-7-(5-(1-propyn-1-yl)-3-pyridinyl)spiro[chromeno[2,3-b]pyridine-5,4′-[1,3]oxazol]-2′-amine], the values for the IC50 in experiment [1] and in experiment [2] (setting [4]) were 0.3 nM and 2 nM, respectively.

For the molecule `CC(C)(C)COc1ccc2c(c1)[C@@]1(COC(N)=N1)c1cc(C3=CC(C)(C)OCC3)cnc1O2` [Example 506, (5S)-3-(6,6-dimethyl-3,6-dihydro-2H-pyran-4-yl)-7-(2,2-dimethylpropoxy)spiro[chromeno[2,3-b]pyridine-5,4′-[1,3]oxazol]-2′-amine], the IC50 in experiment [1] turned out to be 5.7 nM; in experiment [2] (setting [4]), 36.1 nM.

Regarding `NC1=N[C@]2(CO1)c1cc(-c3cccnc3F)c(F)cc1Oc1c(F)cc(C3=CCCOC3)cc12` [Example 866, (4R)-7′-(5,6-dihydro-2H-pyran-3-yl)-3′,5′-difluoro-2′-(2-fluoro-3-pyridinyl)spiro[1,3-oxazole-4,9′-xanthen]-2-amine], the IC50 turned out to be 62.3 nM in experiment [1] and 1720 nM in experiment [2] (setting [4]).

Take `NC1=N[C@@]2(CS1)c1cc(-c3cccnc3F)ccc1Oc1ncc(C3CCOCC3)cc12` [Example 729, (5S)-7-(2-fluoro-3-pyridinyl)-3-(tetrahydro-2H-pyran-4-yl)spiro[chromeno[2,3-b]pyridine-5,4′-[1,3]thiazol]-2′-amine]: the IC50 was 6.8 nM in experiment [1] and 43 nM in experiment [2] (setting [3]).

For `CC(C)(C)COc1ccc2c(c1)[C@@]1(COC(N)=N1)c1cc(C3=CCOC(C)(C)C3)cnc1O2` [Example 507, (5S)-3-(2,2-dimethyl-3,6-dihydro-2H-pyran-4-yl)-7-(2,2-dimethylpropoxy)spiro[chromeno[2,3-b]pyridine-5,4′-[1,3]oxazol]-2′-amine], the IC50 in experiment [1] amounted to 5.6 nM; in experiment [2] (average IC50, HEK cells), 31 nM.

Turning to `N#Cc1cnc2c(c1)C1(CSC(N)=N1)c1cc(-c3cccnc3F)ccc1O2` (stereo not shown) [Example 627, 2′-amino-7-(2-fluoro-3-pyridinyl)spiro[chromeno[2,3-b]pyridine-5,4′-[1,3]thiazole]-3-carbonitrile], the IC50 in experiment [1] is 626 nM; in experiment [2] (setting [4]) it was 1590 nM.

Turning to `Cc1ccc(-c2ccc3c(c2)[C@@]2(COC(N)=N2)c2cc(C4=CCOCC4)ncc2O3)c(F)n1` [Example 253, (5S)-3-(3,6-dihydro-2H-pyran-4-yl)-7-(2-fluoro-6-methyl-3-pyridinyl)spiro[chromeno[2,3-c]pyridine-5,4′-[1,3]oxazol]-2′-amine], the IC50 was determined as 36 nM in experiment [1] and 320 nM in experiment [2] (setting [3]).

Take `CC1(C#Cc2cnc3c(c2)[C@]2(COC(N)=N2)c2cc(-c4cncc(C(F)(F)F)c4)ccc2O3)COC1` [Example 187, (5S)-3-((3-methyl-3-oxetanyl)ethynyl)-7-(5-(trifluoromethyl)-3-pyridinyl)spiro[chromeno[2,3-b]pyridine-5,4′-[1,3]oxazol]-2′-amine]: the IC50 turned out to be 2.9 nM in experiment [1] and 11.6 nM in experiment [2] (setting [3]).

In the case of `NC1=N[C@@]2(CS1)c1cc(-c3cncnc3)c(F)cc1Oc1c(F)cc(N3CCOCC3)cc12` [Example 888, (4S)-3′,5′-difluoro-7′-(4-morpholinyl)-2′-(5-pyrimidinyl)spiro[1,3-thiazole-4,9′-xanthen]-2-amine], the IC50 in experiment [1] was determined as 2.1 nM; in experiment [2] (setting [4]), 10 nM.

As to `Cc1ccnc(F)c1-c1ccc2c(c1)[C@@]1(COC(N)=N1)c1cc(N3CCOC(C)(C)C3)cnc1O2` [Example 482, (5S)-3-(2,2-dimethyl-4-morpholinyl)-7-(2-fluoro-4-methyl-3-pyridinyl)spiro[chromeno[2,3-b]pyridine-5,4′-[1,3]oxazol]-2′-amine], the results for the IC50 in experiment [1] and in experiment [2] (setting [4]) were 3.4 nM and 14.4 nM, respectively.

As for `NC1=N[C@@]2(CO1)c1cc(Oc3ccc(Cl)cn3)ccc1Oc1c(F)cc(N3CCOCC3)cc12` [Example 1061, (4S)-7′-((5-chloro-2-pyridinyl)oxy)-4′-fluoro-2′-(4-morpholinyl)spiro[1,3-oxazole-4,9′-xanthen]-2-amine], the IC50 in experiment [1] is 57.4 nM; in experiment [2] (setting [3]), 538 nM.

Turning to `CC1(COc2cc(F)c3c(c2)[C@@]2(CSC(N)=N2)c2cc(-c4cccnc4)c(F)cc2O3)COC1` [Example 877, (4R)-3′,5′-difluoro-7′-((3-methyl-3-oxetanyl)methoxy)-2′-(3-pyridinyl)spiro[1,3-thiazole-4,9′-xanthen]-2-amine], the IC50 in experiment [1] came out at 183 nM; in experiment [2] (setting [4]) it was 3000 nM.

`NC1=N[C@@]2(CO1)c1cc(-c3cncnc3)ccc1Oc1cnc(-c3ccnc(F)c3)cc12` [Example 539, (5S)-3-(2-fluoro-4-pyridinyl)-7-(5-pyrimidinyl)spiro[chromeno[2,3-c]pyridine-5,4′-[1,3]oxazol]-2′-amine]: the IC50 in experiment [1] was 1.7 nM; in experiment [2] (setting [4]) it was 38.2 nM.

On to `Cc1cc(-c2cc3c(c(F)n2)Oc2ccc(-c4cccnc4F)cc2[C@@]32COC(N)=N2)ccn1` [Example 744, (5S)-1-fluoro-7-(2-fluoro-3-pyridinyl)-3-(2-methyl-4-pyridinyl)spiro[chromeno[2,3-c]pyridine-5,4′-[1,3]oxazol]-2′-amine], for which the IC50 worked out at 0.8 nM in experiment [1] and 12 nM in experiment [2] (setting [3]).

`NC1=N[C@]2(CO1)c1cc(-c3cccnc3)ccc1Oc1c2cc(-c2ccnc(F)c2)c(F)c1F` [Example 1012, (4R)-3′,4′-difluoro-2′-(2-fluoro-4-pyridinyl)-7′-(3-pyridinyl)spiro[1,3-oxazole-4,9′-xanthen]-2-amine]: the IC50 was 59.7 nM in experiment [1] and 1850 nM in experiment [2] (setting [3]).

For the molecule `NC1=N[C@]2(CO1)c1cc(-c3cccnc3F)ccc1Oc1nc(F)c(C3=CCCOC3)cc12` [Example 902, (5R)-3-(5,6-dihydro-2H-pyran-3-yl)-2-fluoro-7-(2-fluoro-3-pyridinyl)spiro[chromeno[2,3-b]pyridine-5,4′-[1,3]oxazol]-2′-amine], the IC50 in experiment [1] is 137 nM; in experiment [2] (setting [4]), 3220 nM.

Consider `COc1ccnc(F)c1-c1ccc2c(c1)[C@@]1(COC(N)=N1)c1cc(C3=CCOCC3)ncc1O2` [Example 612, (5S)-3-(3,6-dihydro-2H-pyran-4-yl)-7-(2-fluoro-4-methoxy-3-pyridinyl)spiro[chromeno[2,3-c]pyridine-5,4′-[1,3]oxazol]-2′-amine], for which the figures for the IC50 in experiment [1] and in experiment [2] (setting [4]) were 0.6 nM and 3 nM, respectively.

For `CC1(COc2cc(F)c3c(c2)[C@]2(CSC(N)=N2)c2cc(-c4cccnc4F)ccc2O3)COC1` [Example 794, (4S)-4′-fluoro-7′-(2-fluoro-3-pyridinyl)-2′-((3-methyl-3-oxetanyl)methoxy)spiro[1,3-thiazole-4,9′-xanthen]-2-amine], the IC50 in experiment [1] is 0.2 nM; in experiment [2] (setting [3]) it was 6 nM.

In the case of `NC1=N[C@@]2(CS1)c1cc(-c3cccnc3F)ccc1Oc1cnc(C3CCOCC3)cc12` [Example 930, (5S)-7-(2-fluoro-3-pyridinyl)-3-(tetrahydro-2H-pyran-4-yl)spiro[chromeno[2,3-c]pyridine-5,4′-[1,3]thiazol]-2′-amine], the IC50 in experiment [1] was found to be 4 nM; in experiment [2] (setting [4]), 57 nM.

Regarding `N#Cc1cccc(-c2ccc3c(c2)[C@@]2(COC(N)=N2)c2cc(N4CC[C@H](F)C4)nc(F)c2O3)c1` [Example 924, 3-((5S)-2′-amino-1-fluoro-3-((3S)-3-fluoro-1-pyrrolidinyl)spiro[chromeno[2,3-c]pyridine-5,4′-[1,3]oxazol]-7-yl)benzonitrile], the IC50 in experiment [1] stood at 0.5 nM; in experiment [2] (setting [4]) it was 18 nM.

Turning to `CC1(COc2cc(F)c3c(c2)[C@]2(COC(N)=N2)c2cc(-c4cnccn4)ccc2O3)COC1` [Example 267, (4S)-4′-fluoro-2′-((3-methyl-3-oxetanyl)methoxy)-7′-(2-pyrazinyl)spiro[1,3-oxazole-4,9′-xanthen]-2-amine], the IC50 is 3.1 nM in experiment [1] and 12 nM in experiment [2] (setting [3]).

Turning to `CC1(C)CC(=O)N(c2cc(F)c3c(c2)[C@]2(COC(N)=N2)c2cc(-c4cccnc4)ccc2O3)C1` [Example 798, 1-((4S)-2-amino-4′-fluoro-7′-(3-pyridinyl)spiro[1,3-oxazole-4,9′-xanthen]-2′-yl)-4,4-dimethyl-2-pyrrolidinone], the IC50 in experiment [1] was 1.4 nM; in experiment [2] (setting [3]) it was 8 nM.

Regarding `NC1=N[C@]2(CO1)c1cc(C3=CCOCC3)ccc1Oc1ccc(-c3cnccn3)cc12` [Example 192, (4R)-2′-(3,6-dihydro-2H-pyran-4-yl)-7′-(2-pyrazinyl)spiro[1,3-oxazole-4,9′-xanthen]-2-amine], the IC50 turned out to be 13.1 nM in experiment [1] and 35 nM in experiment [2] (setting [3]).

With `CC1(/C=C/c2cnc3c(c2)[C@]2(COC(N)=N2)c2cc(-c4cc(Cl)ccc4F)ccc2O3)COC1` [Example 177, (5S)-7-(5-chloro-2-fluorophenyl)-3-((E)-2-(3-methyl-3-oxetanyl)ethenyl)spiro[chromeno[2,3-b]pyridine-5,4′-[1,3]oxazol]-2′-amine], the figures for the IC50 in experiment [1] and in experiment [2] (setting [3]) were 0.4 nM and 1.8 nM, respectively.

Regarding `Cc1ccc(Oc2ccc3c(c2)[C@@]2(COC(N)=N2)c2cc(N4CCOCC4)cc(F)c2O3)nc1` [Example 1058, (4S)-4′-fluoro-7′-((5-methyl-2-pyridinyl)oxy)-2′-(4-morpholinyl)spiro[1,3-oxazole-4,9′-xanthen]-2-amine], the IC50 in experiment [1] stood at 50.7 nM; in experiment [2] (setting [3]) it was 604 nM.
